Laboratory results from US9834550B2, “Pyridopyrimidinone compounds for modulating the catalytic activity of histone lysine demethylases (KDMs)” (Dong-A Socio Holdings Co., Ltd., priority 2014, dated 2017).

Tests used:
[1] = test system: MDA-MB-231 cell migration; test: Wound healing assay; assay type: cell-based; details: 24 h treatment; compared to DMSO; FIG. 1
Experimental: Breast cancer cells (MDA-MD-231) were seeded into 12-well plates (2500 cells/well), at bottom of which culture-inserts were implemented. The cells were cultured to subconfluence in RPMI1640 medium supplemented with 0.5% FBS and 100 μg/ml penicillin/streptomycin, and then starved in serum-free media for one day at 37° C. and 5% CO2. The inserts were removed to generate two cell patches separated each other by 0.9 mm of ‘wound fields’. Cultures were then treated with test compounds for 24 h. The results of wound healing assays at indicated time were photographed under microscopy with ×40 magnification after generating the wound fields. […] Similar results were obtained in three independent samples. The cancer cells were stained with 0.1% crystal violet at 24-hours time points.

[2] = molecular target: T1, Recombinant human JARID1B/KDM5B (Homo sapiens, UniProt Q9UGL1); test: LANCE Ultra TR-FRET demethylase assay with FLAG-tagged JARID1B; assay type: biochemical; details: 100 nM compound; 500 nM biotinylated H3K4me3 peptide substrate
T1 construct: purchased Active Motif 31432; host or cells: Sf9 insect cells
In short: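 Sf9-expressed N-FLAG full-length JARID1B (10–30 nM) preincubated 5 min with compound at 20, 1 or 0.1 uM (1% DMSO), then 500 nM biotin-H3K4me3 peptide, 500 uM 2-OG, 25 uM Fe(II), 2 mM ascorbate added; 30 min at room temperature in Hepes pH 7.5. H3K4me2/1 product read by TR-FRET 665/590 ratio.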

[3] = test system: MDA-MB-231 breast cancer cells; test: Cell invasion assay (transwell, BME); assay type: cell-based; details: 10 μM; 24-h incubation; FIG. 2
Experimental: The ability of MDA-MB-231 breast cancer cells to invade into the basement membrane through a layer of BME (Basement Membrane Extract) was determined by using transwell inserts in a 24-well plate. The pore size of membrane was […]. The basement membrane was reconstituted by loading cold BME on top of the polycarbonate filter of the inserts of the transwell plate. After gelation of Matrigel at 37° C., MDA-MB-231 cells were plated into the inserts (1×10^5 cells/0.3 ml/well), and complete media were added to the lower wells (0.5 ml/well). To analyze the effect of 10 μM of compounds No. 87, 167, isonicotinic acid r or SAHA, was present in the cell suspensions. After a 24-h incubation, the noninvasive cells were remained within the inserts while cells that traversed through the BME and the polycarbonate filter were attached to the lower surface of the filter. The penetrated cells were then stained with 0.1% crystal violet.

T1 sequence (Q9UGL1 whole entry): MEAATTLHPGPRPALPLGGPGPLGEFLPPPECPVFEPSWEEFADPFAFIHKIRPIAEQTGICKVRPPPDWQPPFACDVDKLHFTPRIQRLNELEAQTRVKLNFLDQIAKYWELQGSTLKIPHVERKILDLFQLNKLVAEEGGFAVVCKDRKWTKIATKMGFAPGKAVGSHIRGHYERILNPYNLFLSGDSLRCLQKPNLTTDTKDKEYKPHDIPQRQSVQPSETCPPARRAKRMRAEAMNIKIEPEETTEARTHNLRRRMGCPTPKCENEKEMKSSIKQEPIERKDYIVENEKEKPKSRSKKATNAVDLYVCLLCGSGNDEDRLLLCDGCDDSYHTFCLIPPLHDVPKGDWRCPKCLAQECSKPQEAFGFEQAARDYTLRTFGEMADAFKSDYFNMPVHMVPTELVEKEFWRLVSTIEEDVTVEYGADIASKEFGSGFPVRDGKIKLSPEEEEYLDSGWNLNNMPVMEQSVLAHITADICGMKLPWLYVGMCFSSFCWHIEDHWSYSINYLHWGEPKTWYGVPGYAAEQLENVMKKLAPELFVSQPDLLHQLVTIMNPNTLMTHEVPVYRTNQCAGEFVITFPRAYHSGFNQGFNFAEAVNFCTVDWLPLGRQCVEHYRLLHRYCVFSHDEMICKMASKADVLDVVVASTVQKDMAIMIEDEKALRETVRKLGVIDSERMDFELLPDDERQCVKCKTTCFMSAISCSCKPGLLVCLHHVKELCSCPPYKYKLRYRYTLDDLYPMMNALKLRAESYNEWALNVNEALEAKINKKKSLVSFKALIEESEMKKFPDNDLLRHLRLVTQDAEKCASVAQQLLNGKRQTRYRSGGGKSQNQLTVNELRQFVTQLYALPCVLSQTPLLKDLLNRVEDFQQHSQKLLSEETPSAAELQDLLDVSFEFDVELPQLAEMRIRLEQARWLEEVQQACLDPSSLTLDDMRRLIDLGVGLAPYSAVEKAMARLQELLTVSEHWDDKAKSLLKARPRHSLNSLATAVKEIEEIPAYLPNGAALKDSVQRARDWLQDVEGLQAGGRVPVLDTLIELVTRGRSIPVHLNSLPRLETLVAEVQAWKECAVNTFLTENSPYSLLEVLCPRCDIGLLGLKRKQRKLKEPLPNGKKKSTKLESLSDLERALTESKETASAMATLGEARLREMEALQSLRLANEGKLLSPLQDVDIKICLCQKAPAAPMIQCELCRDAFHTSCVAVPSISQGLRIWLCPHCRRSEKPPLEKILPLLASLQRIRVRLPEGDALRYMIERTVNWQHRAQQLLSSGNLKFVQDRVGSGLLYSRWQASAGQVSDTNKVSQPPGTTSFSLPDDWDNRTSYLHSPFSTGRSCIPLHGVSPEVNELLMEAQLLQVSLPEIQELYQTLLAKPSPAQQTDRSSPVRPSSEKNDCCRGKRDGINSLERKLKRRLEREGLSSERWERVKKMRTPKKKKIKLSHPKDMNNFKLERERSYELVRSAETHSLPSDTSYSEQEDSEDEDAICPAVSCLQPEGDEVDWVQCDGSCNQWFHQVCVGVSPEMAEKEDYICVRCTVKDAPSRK

Structure (SMILES): CN1CCC(CNCc2nccc3c(=O)[nH]c(COc4ccc(Cc5ccccc5)cc4)nc23)C1 (centres unmarked) [Example 144, 2-((4-benzylphenoxy)methyl)-8-((((1-methylpyrrolidin-3-yl)methyl)amino)methyl)pyrido[3,4-d]pyrimidin-4(3H)-one]
- MDA-MB-231 cell migration (wound healing) [1]: suppressed MDA-MB-231 cell migration
- inhibition at 0.1 µM [2]: > 50%

Structure (SMILES): O=c1[nH]c(COc2ccc(F)c(Cl)c2)nc2c(CNCC3CNCCO3)nccc12 (centres unmarked) [Example 167, 2-((3-chloro-4-fluorophenoxy)methyl)-8-(((morpholin-2-ylmethyl)amino)methyl)pyrido[3,4-d]pyrimidin-4(3H)-one]
- inhibition at 0.1 µM [2]: > 50%
- MDA-MB-231 breast cancer cell invasion potential [3]: decreased the MDA-MB-231 breast cancer cell invasion potential

Structure (SMILES): O=C(CCCCCCC(=O)Nc1ccccc1)NO [SAHA, reference compound]
- MDA-MB-231 breast cancer cell invasion potential [3]: decreased the MDA-MB-231 breast cancer cell invasion potential
